pIC50: −log10 of the molar value.

In the assay the target is BRD4 (Homo sapiens, UniProt O60885). The assay can be described thus: Time Resolved Fluorescence Resonance Energy Transfer (TR-FRET) binding assay, BRD4. The note with it: one of the FRET assays described; read-out: FRET BRD4 IC50. For orientation: In TR-FRET formats the signal depends on donor and acceptor labels being close together.
By pIC50 is commonly meant the IC50 on a negative log10 scale, so that one unit is a factor of ten. Turning to `Cc1noc(C)c1-c1cnc2c3ccc(C(C)(C)O)cc3n(C(c3ccccc3)C3CCOCC3)c2c1` (single isomer, unassigned) [Example 1, 2-[3-(Dimethyl-1,2-oxazol-4-yl)-5-[oxan-4-yl(phenyl)methyl]-5H-pyrido[3,2-b]indol-7-yl]propan-2-ol], the negative-log IC50 (pIC50) is over 8.30.

As to `Cc1noc(C)c1-c1cnc2c3ccc(C(C)(C)O)cc3n(C(c3ccccc3)C3CCOCC3)c2c1` (single isomer, unassigned) [Example 2, 2-[3-(Dimethyl-1,2-oxazol-4-yl)-5-[oxan-4-yl(phenyl)methyl]-5H-pyrido[3,2-b]indol-7-yl]propan-2-ol], the pIC50 was over 8.30.

For `Cc1noc(C)c1-c1cnc2c3ccc(C(C)(C)O)cc3n(C(c3ccccc3)C3CCC(F)(F)CC3)c2c1` (single isomer, unassigned) [Example 27, 2-{5-[(4,4-Difluorocyclohexyl)(phenyl)methyl]-3-(dimethyl-1,2-oxazol-4-yl)-5H-pyrido[3,2-b]indol-7-yl}propan-2-ol], the negative logarithm of the IC50 (pIC50) was over 8.30.

Turning to `Cc1noc(C)c1-c1cnc2c3ccc(C(C)(C)O)cc3n(C(c3ccccc3)C3CCC(F)(F)CC3)c2c1` (single isomer, unassigned) [Example 28, 2-{5-[(4,4-Difluorocyclohexyl)(phenyl)methyl]-3-(dimethyl-1,2-oxazol-4-yl)-5H-pyrido[3,2-b]indol-7-yl}propan-2-ol], the pIC50 is over 8.30.

`Cc1noc(C)c1-c1cnc2c3ccc(C(C)(C)O)cc3n(C(c3ccccc3)c3cscn3)c2c1` (single isomer, unassigned) [Example 29, 2-[3-(Dimethyl-1,2-oxazol-4-yl)-5-[phenyl(1,3-thiazol-4-yl)methyl]-5H-pyrido[3,2-b]indol-7-yl]propan-2-ol]: the negative-log IC50 (pIC50) was over 8.30.

Take `Cc1noc(C)c1-c1cnc2c3ccc(C(C)(C)O)cc3n(C(c3ccccc3)c3cscn3)c2c1` (single isomer, unassigned) [Example 30, 2-[3-(Dimethyl-1,2-oxazol-4-yl)-5-[phenyl(1,3-thiazol-4-yl)methyl]-5H-pyrido[3,2-b]indol-7-yl]propan-2-ol]: the pIC50 is over 8.30.

As for `Cc1noc(C)c1-c1cnc2c3ccc(C(C)(C)O)cc3n(C(c3ccccc3)C3(F)CCC3)c2c1` (single isomer, unassigned) [Example 32, 2-[3-(Dimethyl-1,2-oxazol-4-yl)-5-[(1-fluorocyclobutyl)(phenyl)methyl]-5H-pyrido[3,2-b]indol-7-yl]propan-2-ol], the pIC50 is over 8.30.

`Cc1noc(C)c1-c1cnc2c3ccc(C(C)(C)O)cc3n(C(c3ccccc3)C3(F)CCC3)c2c1` (single isomer, unassigned) [Example 33, 2-[3-(Dimethyl-1,2-oxazol-4-yl)-5-[(1-fluorocyclobutyl)(phenyl)methyl]-5H-pyrido[3,2-b]indol-7-yl]propan-2-ol]: the pIC50 was over 8.30.

On to `Cc1noc(C)c1-c1cnc2c3ccc(C(C)(C)O)cc3n(C(CCC(F)(F)F)c3cocn3)c2c1` (single isomer, unassigned) [Example 34, 2-[3-(Dimethyl-1,2-oxazol-4-yl)-5-[4,4,4-trifluoro-1-(1,3-oxazol-4-yl)butyl]-5H-pyrido[3,2-b]indol-7-yl]propan-2-ol], for which the pIC50 is over 8.30.

In the case of `Cc1noc(C)c1-c1cnc2c3ccc(C(C)(C)O)cc3n(C(CCC(F)(F)F)c3cocn3)c2c1` (single isomer, unassigned) [Example 35, 2-[3-(Dimethyl-1,2-oxazol-4-yl)-5-[4,4,4-trifluoro-1-(1,3-oxazol-4-yl)butyl]-5H-pyrido[3,2-b]indol-7-yl]propan-2-ol], the negative-log IC50 (pIC50) is over 7.60.

For `Cc1noc(C)c1-c1cnc2c3ccc(C(C)(C)O)cc3n(C(CCC(F)(F)F)c3cnoc3)c2c1` (single isomer, unassigned) [Example 36, 2-[3-(Dimethyl-1,2-oxazol-4-yl)-5-[4,4,4-trifluoro-1-(1,2-oxazol-4-yl)butyl]-5H-pyrido[3,2-b]indol-7-yl]propan-2-ol], the pIC50 was over 7.60.

Take `Cc1noc(C)c1-c1cnc2c3ccc(C(C)(C)O)cc3n(C(CCC(F)(F)F)c3cnoc3)c2c1` (single isomer, unassigned) [Example 37, 2-[3-(Dimethyl-1,2-oxazol-4-yl)-5-[4,4,4-trifluoro-1-(1,2-oxazol-4-yl)butyl]-5H-pyrido[3,2-b]indol-7-yl]propan-2-ol]: the pIC50 is over 8.30.

Turning to `Cc1noc(C)c1-c1cnc2c3ccc(S(C)(=O)=O)cc3n(C(CCC(F)(F)F)c3ccccc3)c2c1` (single isomer, unassigned) [Example 38, 4-[7-Methanesulfonyl-5-(4,4,4-trifluoro-1-phenylbutyl)-5H-pyrido[3,2-b]indol-3-yl]-3,5-dimethyl-1,2-oxazole], the negative logarithm of the IC50 (pIC50) is over 7.60.

In the case of `Cc1noc(C)c1-c1cnc2c3ccc(S(C)(=O)=O)cc3n(C(CCC(F)(F)F)c3ccccc3)c2c1` (single isomer, unassigned) [Example 39, 4-[7-Methanesulfonyl-5-(4,4,4-trifluoro-1-phenylbutyl)-5H-pyrido[3,2-b]indol-3-yl]-3,5-dimethyl-1,2-oxazole], the pIC50 was over 5.82.

For the compound `Cc1oncc1-c1cnc2c3ccc(C(C)(C)O)cc3n(C(c3ccc(F)cc3)C3CCOCC3)c2c1` (single isomer, unassigned) [Example 40, 2-{5-[(4-Fluorophenyl)(oxan-4-yl)methyl]-3-(5-methyl-1,2-oxazol-4-yl)-5H-pyrido[3,2-b]indol-7-yl}propan-2-ol], the pIC50 is over 7.60.

With `Cc1oncc1-c1cnc2c3ccc(C(C)(C)O)cc3n(C(c3ccc(F)cc3)C3CCOCC3)c2c1` (single isomer, unassigned) [Example 41, 2-{5-[(4-Fluorophenyl)(oxan-4-yl)methyl]-3-(5-methyl-1,2-oxazol-4-yl)-5H-pyrido[3,2-b]indol-7-yl}propan-2-ol], the negative logarithm of the IC50 (pIC50) is over 5.82.

`Cc1nocc1-c1cnc2c3ccc(C(C)(C)O)cc3n(C(c3ccc(F)cc3)C3CCOCC3)c2c1` (single isomer, unassigned) [Example 42, 2-{5-[(4-Fluorophenyl)(oxan-4-yl)methyl]-3-(3-methyl-1,2-oxazol-4-yl)-5H-pyrido[3,2-b]indol-7-yl}propan-2-ol]: the negative-log IC50 (pIC50) was over 7.60.

For the compound `Cc1nocc1-c1cnc2c3ccc(C(C)(C)O)cc3n(C(c3ccc(F)cc3)C3CCOCC3)c2c1` (single isomer, unassigned) [Example 43, 2-{5-[(4-Fluorophenyl)(oxan-4-yl)methyl]-3-(3-methyl-1,2-oxazol-4-yl)-5H-pyrido[3,2-b]indol-7-yl}propan-2-ol], the negative logarithm of the IC50 (pIC50) was over 5.82.

As for `Cc1nnn(C)c1-c1cnc2c3ccc(C(C)(C)O)cc3n([C@H](c3ccccc3)C3CCOCC3)c2c1` (single isomer, unassigned) [Example 54], the pIC50 was over 8.30.

In the case of `Cc1nnn(C)c1-c1cnc2c3ccc(C(C)(C)O)cc3n([C@@H](c3ccccc3)C3CCOCC3)c2c1` (single isomer, unassigned) [Example 55, 2-[3-(Dimethyl-1H-1,2,3-triazol-5-yl)-5-[oxan-4-yl(phenyl)methyl]-5H-pyrido[3,2-b]indol-7-yl]propan-2-ol], the pIC50 is over 8.30.

On to `Cn1nncc1-c1cnc2c3ccc(C(C)(C)O)cc3n(C(c3ccc(F)cc3)C3CCOCC3)c2c1` (single isomer, unassigned) [Example 66, 2-{5-[(4-Fluorophenyl)(oxan-4-yl)methyl]-3-(1-methyl-1H-1,2,3-triazol-5-yl)-5H-pyrido[3,2-b]indol-7-yl}propan-2-ol], for which the pIC50 is over 8.30.

For `Cn1nncc1-c1cnc2c3ccc(C(C)(C)O)cc3n(C(c3ccc(F)cc3)C3CCOCC3)c2c1` (single isomer, unassigned) [Example 67, 2-{5-[(4-Fluorophenyl)(oxan-4-yl)methyl]-3-(1-methyl-1H-1,2,3-triazol-5-yl)-5H-pyrido[3,2-b]indol-7-yl}propan-2-ol], the pIC50 is over 7.60.

As for `Cc1nnn(C)c1-c1cnc2c3ccc(C(C)(C)O)c(F)c3n(C(c3ccccc3)C3CCOCC3)c2c1` (single isomer, unassigned) [Example 71, 2-[3-(Dimethyl-1H-1,2,3-triazol-5-yl)-6-fluoro-5-[oxan-4-yl(phenyl)methyl]-5H-pyrido[3,2-b]indol-7-yl]propan-2-ol], the pIC50 was over 8.30.

On to `Cc1nnn(C)c1-c1cnc2c3cc(F)c(C(C)(C)O)cc3n(C(c3ccc(F)cc3)C3CCOCC3)c2c1` (single isomer, unassigned) [Example 78, 2-[3-(Dimethyl-1H-1,2,3-triazol-5-yl)-8-fluoro-5-[(4-fluorophenyl)(oxan-4-yl)methyl]-5H-pyrido[3,2-b]indol-7-yl]propan-2-ol], for which the pIC50 was over 8.30.

Take `Cc1nnn(C)c1-c1cnc2c3cc(F)c(C(C)(C)O)cc3n(C(c3ccc(F)cc3)C3CCOCC3)c2c1` (single isomer, unassigned) [Example 79, 2-[3-(Dimethyl-1H-1,2,3-triazol-5-yl)-8-fluoro-5-[(4-fluorophenyl)(oxan-4-yl)methyl]-5H-pyrido[3,2-b]indol-7-yl]propan-2-ol]: the pIC50 is over 7.60.

Turning to `Cc1noc(C)c1-c1cnc2c3ccc(C(C)(C)O)c(F)c3n(C(c3ccc(F)cc3)C3CCOCC3)c2c1` (single isomer, unassigned) [Example 80, 2-[3-(Dimethyl-1,2-oxazol-4-yl)-6-fluoro-5-[(4-fluorophenyl)(oxan-4-yl)methyl]-5H-pyrido[3,2-b]indol-7-yl]propan-2-ol], the pIC50 was over 7.60.

Consider `Cc1noc(C)c1-c1cnc2c3ccc(C(C)(C)O)c(F)c3n(C(c3ccc(F)cc3)C3CCOCC3)c2c1` (single isomer, unassigned) [Example 81, 2-[3-(Dimethyl-1,2-oxazol-4-yl)-6-fluoro-5-[(4-fluorophenyl)(oxan-4-yl)methyl]-5H-pyrido[3,2-b]indol-7-yl]propan-2-ol], for which the pIC50 is over 8.30.

`Cc1nnn(C)c1-c1cnc2c3ccc(C(C)(C)O)cc3n(C(c3cccc(F)c3F)C3CCOCC3)c2c1` (single isomer, unassigned) [Example 94, 2-{5-[(2,3-Difluorophenyl)(oxan-4-yl)methyl]-3-(dimethyl-1H-1,2,3-triazol-5-yl)-5H-pyrido[3,2-b]indol-7-yl}propan-2-ol]: the pIC50 was over 8.30.

The values are drawn from patent US10112941B2, “Tricyclic compounds as anticancer agents” (BRISTOL-MYERS SQUIBB COMPANY, priority 2013, dated 2018).
